# Counter-ions that a name gives are not always drawn. Like-named read-outs stand apart in the source and are kept apart here.
# Legend:
# [1] = tested on: HIV-1; experiment: Env-pseudotyped virus infectivity assay of TDF EFs in TZM-bl cells; format: cell-based; conditions: EFs given 1 and 24 hr before infection
# Description: A reporter gene expression Env-pseudotyped virus infectivity assay was used, as described previously, to measure the HIV-1 antiviral activity of the TDF PLGA and PLCL EFs. Antiviral activity was measured as a reduction in firefly Luciferase (Luc) reporter gene expression after administration of different EF concentrations 1 and 24 hr before a single round of infection in TZM-bl cells (i.e., the engineered HeLa cell clone that stably expresses CD4, CCR5, and CXCR4 receptors and contains HIV-1 Tat-regulated reporter genes for firefly luciferase and B-galactosidase). One set of 8 control wells received only cells plus virus (virus control), and another set of 8 wells received cells only (background control). After 48 hr incubation, culture medium was removed from each well, an equal volume of Bright-Glo™ reagent was added, and luminescence was measured. The EC50 was determined as the TDF-EF concentration that caused a 50% reduction in RLU relative to virus control wells after subtraction of background RLU (FIG. 14).
# [2] = tested on: HSV-2; experiment: HSV-2 plaque assay in Vero E6 cells with EF eluants; format: cell-based
# Description: Initially, experiments were undertaken to determine the in vitro efficacy of unmodified EFs that encapsulated antivirals (ACV and TDF) or are surface-modified with GRFT, against HSV-2 infection. […] The top row of each plate contained cells that were incubated with blank PLGA or PLCL EFs. […] After infection, cells were incubated with IgG to neutralize free HSV-2, and EF eluants were administered to Vero E6 cells. Appropriate controls of: [no treatment/no virus], [no treatment/virus], [blank PLGA or PLCL EFs, virus], and [free ACV, virus] were conducted. […] Similarly, fibers were assessed after 28 days to ensure bioactivity after one month in SVF. […] Only one of the three IC50 curves is shown for each in FIG. 13 for purposes of brevity.
# [3] = tested on: HIV-1 isolates; conditions: most HIV-1 isolates; cited from earlier work
# [4] = tested on: HIV-1BaL; experiment: HIV-1 infection of polarized ectocervical tissue explants; format: cell-based, human
# [5] = tested on: HIV-1 pseudovirus (CCR5-using clade A strain Q769.h5); conditions: same virus strain (Q769.h5); cited from earlier work
# [6] = tested on: HSV-2; conditions: in vitro; read-out: cell-dependent EC50; cited from earlier work
# [7] = tested on: HSV-2; conditions: in vivo; cited from earlier work
# [8] = tested on: HIV-1 pseudovirus (CCR5-using clade A strain Q769.h5); experiment: Env-pseudotyped virus infectivity assay in TZM-bl cells (luciferase); format: cell-based; conditions: similar administration durations
# Description: Materials. Carboxyl-terminated 50:50 poly(lactic-co-glycolic acid) (PLGA, 0.55-0.75 dL/g, 31-57 k MW) was purchased from Lactel Absorbable Polymers (Cupertino, Calif.). Dichloromethane (DCM), dimethyl sulfoxide (DMSO), and the MTT assay kit were obtained from Sigma Aldrich (St Louis, Mo.). 1,1,1,3,3,3-hexafluoro-2-propanol (HFIP) was obtained from Fisher Scientific (Pittsburgh, Pa.). GRFT (MW 12.7 kDa) was produced in Nicotiana benthamiana as previously reported. Fetal bovine serum (FBS) and antibiotics (penicillin/streptomycin) were purchased from VWR. Dulbecco's modified Eagle's medium (DMEM) and keratinocyte serum-free medium were purchased from Invitrogen. The EDC-NHS and enzyme-linked immunosorbent assay (ELISA) kits were purchased from ThermoFisher. Simulated vaginal fluid (SVF) was prepared as described previously. […]
# Cell lines. […] Vaginal keratinocyte, VK2/E6E7 (VK2); ectocervical, Ect1/E6E7 (Ect1); and endocervical, End1/E6E7 (End1) cell lines, obtained from ATCC, were evaluated in cytotoxicity experiments. […]
# In vitro antiviral activity of GRFT-EFs. […] The anti-HIV activity of the GRFT-EFs was measured as a reduction in firefly luciferase (Luc) reporter gene expression in the presence of GRFT-EFs compared to unmodified EFs after a single round of infection in TZM-bl cells. […]
# [9] = tested on: HIV-1-enveloped pseudovirus; conditions: subcutaneous administration in mice; cited from earlier work
molecule,measurement,setting,value
"CC(C)OC(=O)OCOP(=O)(CO[C@H](C)Cn1cnc2c(N)ncnc21)OCOC(=O)OC(C)C [free TDF, tenofovir disoproxil fumarate]",protection against HIV-1,[1],complete protection against HIV-1
"Nc1nc2c(ncn2COCCO)c(=O)[nH]1 [free ACV, acyclovir]",IC50,"[2]; Human alphaherpesvirus 2, Vero C1008, 72 h, fiber eluant collected after 3 days, read-out: average IC50",0.287 µg/mL
same,IC50,"[2]; Human alphaherpesvirus 2, Vero C1008, 672 h, after 28 days in SVF, read-out: IC50",0.293 µg/mL
same,IC50,"[2]; Human alphaherpesvirus 2, Vero C1008, eluant released between 21 and 28 days, read-out: IC50",0.293 µg/mL
griffithsin [free GRFT],in vitro inhibitory activity (EC50),[3],mid-pM to low-nM range
same,block of HIV-1 infection in ectocervical explants,[4],blocks HIV-1 infection
same,concentration down to which HIV-1 infection was blocked,"[4]; ectocervical tissue, 10^4 TCID50 HIV-1BaL overnight, 21 days culture",10 µM
same,previous literature measurement for free GRFT,[5],157 ng/mL
same,EC50,[6],2.3 to 143 µM
same,HSV-2 cell entry,[7],modestly inhibited
same,HSV-2 cell-to-cell spread,[7],completely inhibiting
same,IC50 of free GRFT,[8],233±2.7 ng GRFT/mL
same,antiviral activity of serum from treated animals,[9],retained antiviral activity

# From patent US20210106650A1, “MICROBICIDAL COMPOSITIONS AND METHODS FOR TREATMENT OF VIRAL INFECTIONS” (University of Louisville Research Foundation, Inc., priority 2015, published 2021)
